Patent US12692221B2 (priority 2024, dated 2026)

Key:
5-HT2B = 5-HT2B (Homo sapiens, UniProt P41595); assay: Calcium flux agonist assay, 293T cells; format: cell-based; parameters: expressed in transfected cells; host or cells: Human Embryonic Kidney (293T) cells, transient; conditions: for Emax: HEK-293T, normalized to maximum 5-HT response; for 5-HT2B receptor activation: in words
μ (MOP) (h) = molecular target: T1, μ (MOP) (h) (Homo sapiens, UniProt P35372); assay: Radioligand binding μ (MOP) (h) (agonist radioligand), [^3H]DAMGO, HEK-293 cells
T1 construct: expressed in transfected cells; host or cells: HEK-293 cells
Method: (§1) Methods—Binding Assays: In vitro binding assays were performed using human recombinant receptors expressed in mammalian cell lines. Receptors were expressed in either HEK-293 or CHO cells depending on the target, and assay conditions (radioligand, concentration, nonspecific competitor, temperature, and incubation time) were optimized for each receptor. All assays were conducted in triplicate, and specific binding was quantified by scintillation counting as the detection method for each listed assay.
(§2) Specific binding was expressed as a percentage of control-specific binding, and percent inhibition was calculated using the formula in Ex. 8 above. Half-maximal inhibitory concentrations (IC50) were determined by non-linear regression analysis of the inhibition curves using the Hill equation (see Ex. 8). Inhibition constants (Ki) were calculated using the Cheng-Prusoff equation (see Ex. 8). KD values used in these calculations had been previously established for each receptor under the assay conditions (see Table 6). Data analysis was performed using software developed at Cerep and validated against SigmaPlot 4.0 for Windows.

H2 (h) = molecular target: T2, H2 (h) (Homo sapiens, UniProt P25021); assay: Radioligand binding H2 (h) (antagonist radioligand), [^125I]APT, CHO cells
T2 construct: expressed in transfected cells; host or cells: CHO cells
Method: as §1, §2

BZD (central) = assay: Radioligand binding BZD (central) (agonist radioligand), [^3H]flunitrazepam, rat cerebral cortex
[1] = tested on: Ca^2+ channel (L, dihydropyridine site); assay: Radioligand binding Ca^2+ channel (L, dihydropyridine site) (antagonist radioligand), [^3H]nitrendipine, rat cerebral cortex
COX2(h) = molecular target: T3, COX2(h) (Homo sapiens, UniProt P35354); assay: Enzyme assay COX2(h), arachidonic acid + ADHP, fluorimetry; format: biochemical
T3 construct: host or cells: Sf9 cells
T3 sequence (P35354 18-604): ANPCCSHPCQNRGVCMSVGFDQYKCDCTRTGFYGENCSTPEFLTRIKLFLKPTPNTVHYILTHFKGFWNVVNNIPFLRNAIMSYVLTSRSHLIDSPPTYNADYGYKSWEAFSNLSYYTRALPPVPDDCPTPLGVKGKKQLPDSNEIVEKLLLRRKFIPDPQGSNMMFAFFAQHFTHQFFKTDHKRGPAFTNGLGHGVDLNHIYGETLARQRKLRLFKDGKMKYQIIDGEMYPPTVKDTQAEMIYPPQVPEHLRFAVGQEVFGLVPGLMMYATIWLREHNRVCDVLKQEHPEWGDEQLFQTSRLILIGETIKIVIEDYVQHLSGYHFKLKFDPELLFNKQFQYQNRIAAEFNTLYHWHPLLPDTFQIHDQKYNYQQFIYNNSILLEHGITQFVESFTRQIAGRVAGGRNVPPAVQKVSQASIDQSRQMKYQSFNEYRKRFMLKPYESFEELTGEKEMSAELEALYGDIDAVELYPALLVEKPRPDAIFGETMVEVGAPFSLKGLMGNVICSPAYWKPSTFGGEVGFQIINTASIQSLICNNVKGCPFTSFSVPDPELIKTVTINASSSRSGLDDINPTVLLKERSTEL
Method: (§3) Methods—Enzyme and Uptake Assays: In vitro enzyme and uptake assays were conducted by Eurofins Discovery using human recombinant enzymes expressed in various mammalian and insect cell lines. Enzymatic activity was measured using appropriate substrates or tracers under conditions optimized for each target, as detailed in Table 7. Reactions were incubated at room temperature for a defined duration and terminated according to established protocols. The measured components (either enzymatic products or remaining substrate) were quantified using fluorimetry, photometry, scintillation counting, or LANCE technology, depending on the assay. Assay-specific parameters, including substrate identity, cell line source, incubation time, and detection method, are provided in Table 7.
(§4) All measurements were performed in technical replicates to ensure reproducibility and data quality.
(§5) Results were expressed both as a percentage of control-specific activity and as percent inhibition of control-specific activity. Percent activity was calculated as (measured specific activity/control specific activity)×100, and percent inhibition as 100−[(measured specific activity/control specific activity)×100], based on values obtained in the presence of test compounds. IC50 and EC50 values, along with Hill coefficients (nH), were determined by nonlinear regression analysis of inhibition or concentration-response curves generated from mean replicate values. Hill curve fitting was performed as previously described using software developed at Cerep and validated against SigmaPlot® 4.0 for Windows® (© 1997 by SPSS Inc.).

MAO-A = molecular target: T4, MAO-A (Rattus norvegicus, UniProt P21396); assay: Radioligand binding MAO-A (antagonist radioligand), [^3H]Ro 41-1049, rat cerebral cortex
T4 construct: from tissue; host or cells: rat cerebral cortex
T4 sequence (P21396 1-526): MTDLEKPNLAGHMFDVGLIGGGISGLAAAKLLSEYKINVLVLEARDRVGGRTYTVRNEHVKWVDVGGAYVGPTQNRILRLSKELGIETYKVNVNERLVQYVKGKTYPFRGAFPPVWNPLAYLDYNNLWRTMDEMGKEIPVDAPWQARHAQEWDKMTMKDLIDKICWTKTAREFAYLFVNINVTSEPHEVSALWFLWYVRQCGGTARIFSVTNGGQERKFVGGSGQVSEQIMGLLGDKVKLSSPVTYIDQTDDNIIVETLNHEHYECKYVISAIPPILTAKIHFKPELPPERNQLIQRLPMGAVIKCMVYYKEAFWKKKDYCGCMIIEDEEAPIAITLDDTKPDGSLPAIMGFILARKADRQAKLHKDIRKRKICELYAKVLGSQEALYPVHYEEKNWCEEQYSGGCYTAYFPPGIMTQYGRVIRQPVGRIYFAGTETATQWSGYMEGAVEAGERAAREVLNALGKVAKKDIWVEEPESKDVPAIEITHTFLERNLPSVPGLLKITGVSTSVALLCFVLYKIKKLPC

COX1(h) = COX1(h) (Homo sapiens, UniProt P23219); assay: Enzyme assay COX1(h), arachidonic acid + ADHP, fluorimetry; format: biochemical
Method: as §3, §4, §5

beta2 (h) = molecular target: T5, beta2 (h) (Homo sapiens, UniProt P07550); assay: Radioligand binding beta2 (h) (antagonist radioligand), [^3H](−)CGP 12177, CHO cells
T5 construct: expressed in transfected cells; host or cells: CHO cells
Method: as §1, §2

T1 sequence (P35372 whole entry): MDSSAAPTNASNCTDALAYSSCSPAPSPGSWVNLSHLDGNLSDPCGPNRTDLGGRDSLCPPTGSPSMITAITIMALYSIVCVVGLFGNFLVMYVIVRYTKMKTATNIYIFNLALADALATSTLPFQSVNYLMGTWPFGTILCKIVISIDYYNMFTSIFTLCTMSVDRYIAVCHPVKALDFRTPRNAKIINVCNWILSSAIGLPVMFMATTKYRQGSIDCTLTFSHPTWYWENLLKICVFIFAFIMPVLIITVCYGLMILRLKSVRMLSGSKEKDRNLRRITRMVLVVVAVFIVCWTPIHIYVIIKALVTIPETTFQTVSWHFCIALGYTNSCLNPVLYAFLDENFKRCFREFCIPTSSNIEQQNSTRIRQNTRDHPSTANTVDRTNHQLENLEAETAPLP
T5 sequence (P07550 whole entry): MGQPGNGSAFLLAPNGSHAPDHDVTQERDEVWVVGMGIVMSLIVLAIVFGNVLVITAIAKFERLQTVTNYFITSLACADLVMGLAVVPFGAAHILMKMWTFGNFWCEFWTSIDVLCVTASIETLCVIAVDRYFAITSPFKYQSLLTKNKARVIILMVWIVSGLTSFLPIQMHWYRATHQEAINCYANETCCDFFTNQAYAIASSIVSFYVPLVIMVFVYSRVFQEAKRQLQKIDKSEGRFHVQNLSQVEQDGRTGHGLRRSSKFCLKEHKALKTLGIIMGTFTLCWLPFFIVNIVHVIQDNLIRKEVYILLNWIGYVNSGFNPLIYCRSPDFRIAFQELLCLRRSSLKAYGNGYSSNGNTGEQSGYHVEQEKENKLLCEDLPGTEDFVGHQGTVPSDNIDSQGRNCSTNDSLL
Chain of COX1(h) (P23219 24-599): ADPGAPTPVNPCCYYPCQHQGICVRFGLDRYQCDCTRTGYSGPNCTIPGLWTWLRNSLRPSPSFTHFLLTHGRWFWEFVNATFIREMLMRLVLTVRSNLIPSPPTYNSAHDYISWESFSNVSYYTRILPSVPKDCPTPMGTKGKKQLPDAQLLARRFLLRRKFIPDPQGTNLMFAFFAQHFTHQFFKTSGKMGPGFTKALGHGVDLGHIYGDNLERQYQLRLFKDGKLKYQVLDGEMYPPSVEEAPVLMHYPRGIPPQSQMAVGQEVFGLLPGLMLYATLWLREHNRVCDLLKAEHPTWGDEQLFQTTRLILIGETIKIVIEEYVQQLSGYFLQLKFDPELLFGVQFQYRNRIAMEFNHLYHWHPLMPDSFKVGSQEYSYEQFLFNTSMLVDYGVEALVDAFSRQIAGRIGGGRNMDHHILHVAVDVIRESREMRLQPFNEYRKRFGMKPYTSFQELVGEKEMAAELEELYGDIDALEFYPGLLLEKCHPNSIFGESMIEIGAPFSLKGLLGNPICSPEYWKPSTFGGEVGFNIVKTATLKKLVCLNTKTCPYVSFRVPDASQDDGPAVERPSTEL
T2 sequence (P25021 whole entry): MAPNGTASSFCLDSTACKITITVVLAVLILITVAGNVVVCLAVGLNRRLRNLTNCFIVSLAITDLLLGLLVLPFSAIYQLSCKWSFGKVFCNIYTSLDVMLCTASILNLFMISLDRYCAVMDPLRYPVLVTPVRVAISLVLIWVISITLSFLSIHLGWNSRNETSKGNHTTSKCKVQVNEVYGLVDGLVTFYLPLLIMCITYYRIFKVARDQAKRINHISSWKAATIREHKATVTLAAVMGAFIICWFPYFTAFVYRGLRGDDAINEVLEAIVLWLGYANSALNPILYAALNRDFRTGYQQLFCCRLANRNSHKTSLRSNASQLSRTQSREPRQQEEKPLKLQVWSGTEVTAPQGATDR
Chain of 5-HT2B (P41595 whole entry): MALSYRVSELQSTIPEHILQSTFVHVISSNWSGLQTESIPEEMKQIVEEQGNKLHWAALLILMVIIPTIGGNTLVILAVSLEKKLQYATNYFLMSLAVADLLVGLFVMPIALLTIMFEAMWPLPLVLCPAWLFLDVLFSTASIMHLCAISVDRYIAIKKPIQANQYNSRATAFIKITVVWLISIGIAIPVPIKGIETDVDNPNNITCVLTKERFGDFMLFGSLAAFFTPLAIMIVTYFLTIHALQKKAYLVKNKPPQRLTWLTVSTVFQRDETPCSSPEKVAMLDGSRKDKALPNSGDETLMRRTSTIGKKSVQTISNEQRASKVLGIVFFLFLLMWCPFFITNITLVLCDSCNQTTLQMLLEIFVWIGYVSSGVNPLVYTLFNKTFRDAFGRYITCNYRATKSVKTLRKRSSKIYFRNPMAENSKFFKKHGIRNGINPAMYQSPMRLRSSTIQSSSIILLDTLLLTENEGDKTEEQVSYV

Structure (SMILES)	Emax (5-HT2B; calcium flux, 5-HT2B)	Potency (EC50) (5-HT2B; calcium flux, 5-HT2B)	5-HT2B receptor activation (5-HT2B; calcium flux)	Mean Percent Inhibition of Control Specific Binding (μ (MOP) (h))	Mean Percent Inhibition of Control Specific Binding (H2 (h))	Mean Percent Inhibition of Control Specific Binding (BZD (central))	Mean Percent Inhibition of Control Specific Binding [1]	Mean Percent Inhibition of Control Specific Binding (COX2(h))	Mean Percent Inhibition of Control Specific Binding (MAO-A)	Mean Percent Inhibition of Control Specific Binding (COX1(h))	Mean Percent Inhibition of Control Specific Binding (beta2 (h))	EC50 (5-HT2B)
COCc1cc(CCN)c(O)cc1CC(C)C [2CiBu-2OH-5MM, 2-(2-aminoethyl)-5-isobutyl-4-(methoxymethyl)phenol]	2.64%	Unstable	unexpectedly reduced 5-HT2B receptor activation	24.4%	12.5%	8.3%	8.4%	10.2%	7.0%	−37.4%	42.1%	
COCCc1cc(CCN)c(OC)cc1Br [Compound 2CB-5ME, reference compound]				28.6%	−0.6%	−3.0%	0.2%	−10.4%	5.4%	−4.7%	31.8%	
COCc1cc(CCN)c(OC)cc1Br [Compound 2CB-5MM, 2-(4-bromo-2-methoxy-5-(methoxymethyl)phenyl)ethan-1-amine]	94%			31.1%	−14.7%	−1.8%	2.7%	−8.0%	9.3%	0.3%	18.8%	23.4 nM
COCc1cc(CCN)c(OC)cc1CC(C)C [Compound 2CiBu-5MM, 2-[4-isobutyl-2-methoxy-5-(methoxymethyl)phenyl]ethanamine]	45.7%		unexpectedly reduced 5-HT2B receptor activation	31.5%	−16.5%	6.6%	−4.6%	−7.0%	4.1%	13.8%	38.3%	497 nM
